Results from patent US6984639B2, “Heterocyclic ketone and thioester compounds and uses” (GPI NIL Holdings, Inc., priority 1996, dated 2006).
Where two headings read alike, the source gives them in different places.

Key:
[1] = tested on: MPTP lesioning of dopaminergic neurons in mice; experiment: MPTP Model of Parkinson's Disease; format: in vivo; conditions: test compound 4 mg/kg s.c.; MPTP 30 mg/kg i.p. for 5 days; CD1 mice; striatum, 18 days following MPTP
Experimental: MPTP lesioning of dopaminergic neurons in mice was used as an animal model of Parkinson's Disease. Four week old male CD1 white mice were dosed i.p. with 30 mg/kg of MPTP for 5 days. Test compounds (4 mg/kg), or vehicle, were administered s.c. along with the MPTP for 5 days, as well as for an additional 5 days following cessation of MPTP treatment. At 18 days following MPTP treatment, the animals were sacrificed and the striata were dissected and homogenized. Immunostaining was performed on saggital and coronal brain sections using anti-tyrosine hydroxylase […] to quantitate survival and recovery of dopaminergic neurons.
The results of these experiments are presented in TABLE IV under the column “% TH recovery”.

[2] = tested on: cultured chick sensory neurons from dorsal root ganglia; experiment: Chick Dorsal Root Ganglion Cultures and Neurite Outgrowth; format: cell-based; conditions: for EC50: neurite outgrowth, 48 hours after drug treatment, from dose-response curves, read-out: ED50 (the source's name)
Experimental: Dorsal root ganglia were dissected from chick embryos of ten day gestation. Whole ganglion explants were cultured on thin layer Matrigel-coated 12 well plates with Liebovitz L15 plus high glucose media supplemented with 2 mM glutamine and 10% fetal calf serum, and also containing 10 μm cytosine β-D arabinofuranoside (Ara C) at 37° C. in an environment containing 5% CO2. Twenty-four hours later, the DRGs were treated with various concentrations of nerve growth factor, immunophilin ligands or combinations of NFG plus drugs. Forty-eight hours after drug treatment, the ganglia were visualized under phase contrast or Hoffman Modulation contrast with a Zeiss Axiovert inverted microscope. Photomicrographs of the explants were made, and neurite outgrowth was quantitated. Neurites longer than the ORG diameter were counted as positive, with total number of neurites quantitated per each experimental condition. Three to four DRGs are cultured per well, and each treatment was performed in duplicate.
Dose-response curves were generated from which ED50 values were obtained.

Molecule | % TH recovery [1] [%] | EC50 [2] [nM] | other results
3,3-Diphenylpropyl 1-(3,3-dimethyl-2-oxopentanoyl)-2-piperidinecarbothioate [Compound 46] | 62 |  | 
4-Phenyl-1-butyl (2S)-1-(3,3-dimethyl-1,2-dioxopentyl)-2-pyrrolidinecarbothioate [Compound 30] | 48 | 0.9 | 
3-(1-Naphthyl)-1-propyl 1-(3,3-dimethyl-1,2-dioxopentyl)piperidine-2-carbothioate [Compound 40] | 25 |  | 
3-Phenyl-1-propyl (2S)-1-(2-cyclohexyl-1,2-dioxoethyl)-2-pyrrolidinecarbothioate [Compound 28] | 52 |  | 
CCC(C)(C)C(=O)C(=O)N1CCC[C@H]1C(=O)CCCCc1ccccc1 [Compound 1, (2S)-3,3-dimethyl-1-[2-(5-phenylpentanoyl)pyrrolidinyl]pentane-1,2-dione] | 23 | 0.4 | neurite outgrowth in sensory neurons (photomicrograph) ([2]; 10 pM): promoting neurite outgrowth; neurite outgrowth in sensory neurons (photomicrograph) ([2]; 1 nM): promoting neurite outgrowth; neurite outgrowth in sensory neurons (photomicrograph) ([2]; 1 μM): promoting neurite outgrowth
CCC(C)(C)C(=O)C(=O)N1CCCC1C(=O)SCc1csc2ccccc12 (stereo not shown) [Compound 11] | 53 | 0.36 | 
CC(C)(C)C(=O)C(=O)N1CCCCC1C(=O)C(CCc1ccccc1)CCc1ccccc1 (stereo not shown) [Compound 65] | 23 |  | 
3-(1-Naphthyl)-1-propyl (2S)-1-(3,3-dimethyl-2-oxopentanoyl)-2-pyrrolidinecarbothioate [Compound 43] | 50 |  | 
2-Phenyl-1-ethyl (2S)-1-(3,3-dimethyl-1,2-dioxopentyl)-2-pyrrolidinecarbothioate [Compound 9] | 61 | 0.5 | 
CCC(C)(C)C(=O)C(=O)N1CCC[C@H]1C(=O)CCCC(c1ccc(F)cc1)c1ccc(F)cc1 [Compound 66, (2S)-2-[5,5-di(4-Fluorophenyl)pentanoyl]-1-(3,3 dimethyl-1,2-pentanedione)pyrrolidine] | 25 |  | 
2-Phenyl-1-ethyl (2S)-1-(2-cyclohexyl-1,2-dioxoethyl)-2-pyrrolidinecarbothioate [Compound 12] |  | 0.025 | 
2-Phenyl-1-ethyl 1-(2-phenyl-1,2-dioxoethyl)-2-piperidinecarbothioate [Compound 14] | 48 | 0.9 | 
3,3-Diphenyl-1-propyl (2S)-1-(3,3-dimethyl-1,2-dioxopentyl)-2-pyrrolidinecarbothioate [Compound 32] | 56 |  | 
2-Phenyl-1-ethyl 1-(3,3-dimethyl-1,2-dioxopentyl)-2-piperidinecarbothioate [Compound 10] | 54 | 0.8 | neurite outgrowth in sensory neurons (photomicrograph) ([2]; 10 pM): promoting neurite outgrowth; neurite outgrowth in sensory neurons (photomicrograph) ([2]; 1 nM): promoting neurite outgrowth; neurite outgrowth in sensory neurons (photomicrograph) ([2]; 100 nM): promoting neurite outgrowth
3-(para-Methoxyphenyl)-1-propyl (2S)-1-(3,3-dimethyl-1,2-dioxopentyl)-2-pyrrolidinecarbothioate [Compound 34] | 37.32 | 0.011 | 
O=C(C(=O)N1CCC[C@H]1C(=O)CCCCc1ccccc1)C1CCCCC1 [Compound 62, (2S)-2-(1-Oxo-5-phenyl)pentyl-1-(2-Cyclohexyl-1,2-dioxoethyl)pyrrolidine] | 38 |  | EC50 ([2]; Gallus gallus, Neuron): 5 nM
2,2-Diphenylethyl (2S)-1-(3,3-dimethyl-2-oxopentanoyl)-2-pyrrolidinecarbothioate [Compound 44] | 28 |  | 
